Data set [1] can be described thus: Rat PK study of P-1496 free base, arginine and lysine complex. The class given is in vivo, Sprague-Dawley rats. More on the design: AUC∞/dose: unit not given here. The conditions noted are these: for AUC∞/dose / Cmax/dose: Table 10B, rats; for biopharmaceutical properties, comparison in words: rat PK, relative to P-1496 free base. How it is done:
A PK study was carried out in Sprague-Dawley rats on the arginine or lysine complex of propane-1-sulfonic acid {2,4-difluoro-3-[5-(2-methoxy-pyrimidin-5-yl)-1H-pyrrolo[2,3-b]pyridine-3-carbonyl]-phenyl}-amide P-1496 (Murigenics, Berkeley, Calif.), dosing via […], with sampling of approximately 250 μL of blood via jugular veing in Lithium heparin tubes at 30 minutes, 1, 3, 6, 8, 12, 24, 36 and 48 hours. Blood samples were centrifuged at 4° C. for 10 minutes at RCF of 1,000, plasma was stored at […] and shipped frozen for analytical analysis (Integrated Analytical Solutions, Inc., Berkeley, Calif.).
Solid formulations were taken up in PEG400:water at 200 mg/cc for free base, arginine, and lysine complexes, and also at 400 mg/cc for lysine complex and dosed by oral gavage 10 mL/kg to provide the P-1496 doses indicated in Table 10B.

For a further data set, the target named is T1, TEC (Homo sapiens, UniProt P42680).
T1 sequence (P42680 1-631): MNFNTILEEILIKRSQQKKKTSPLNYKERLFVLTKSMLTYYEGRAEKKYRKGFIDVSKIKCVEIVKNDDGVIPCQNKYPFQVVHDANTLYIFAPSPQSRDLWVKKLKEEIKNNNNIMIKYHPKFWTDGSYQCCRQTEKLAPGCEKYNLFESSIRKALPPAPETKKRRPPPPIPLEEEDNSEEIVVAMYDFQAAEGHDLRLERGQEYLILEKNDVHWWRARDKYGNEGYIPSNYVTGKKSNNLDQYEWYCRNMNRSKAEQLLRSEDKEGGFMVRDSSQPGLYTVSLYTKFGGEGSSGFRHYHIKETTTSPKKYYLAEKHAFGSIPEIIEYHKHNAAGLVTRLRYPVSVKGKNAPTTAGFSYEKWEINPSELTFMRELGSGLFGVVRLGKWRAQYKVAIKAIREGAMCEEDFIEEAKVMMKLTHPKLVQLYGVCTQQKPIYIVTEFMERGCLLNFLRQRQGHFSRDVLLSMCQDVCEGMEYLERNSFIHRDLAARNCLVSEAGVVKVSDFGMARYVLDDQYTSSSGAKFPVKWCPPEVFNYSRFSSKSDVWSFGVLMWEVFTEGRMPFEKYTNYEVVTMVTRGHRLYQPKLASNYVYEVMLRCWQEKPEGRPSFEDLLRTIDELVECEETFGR
Kind of data set: Kinase activity assay, TEC.

For the next data set, the target named is TrkA (Homo sapiens, UniProt P04629). Put plainly: Kinase activity assay, TrkA.
TrkA, sequence (P04629 33-796): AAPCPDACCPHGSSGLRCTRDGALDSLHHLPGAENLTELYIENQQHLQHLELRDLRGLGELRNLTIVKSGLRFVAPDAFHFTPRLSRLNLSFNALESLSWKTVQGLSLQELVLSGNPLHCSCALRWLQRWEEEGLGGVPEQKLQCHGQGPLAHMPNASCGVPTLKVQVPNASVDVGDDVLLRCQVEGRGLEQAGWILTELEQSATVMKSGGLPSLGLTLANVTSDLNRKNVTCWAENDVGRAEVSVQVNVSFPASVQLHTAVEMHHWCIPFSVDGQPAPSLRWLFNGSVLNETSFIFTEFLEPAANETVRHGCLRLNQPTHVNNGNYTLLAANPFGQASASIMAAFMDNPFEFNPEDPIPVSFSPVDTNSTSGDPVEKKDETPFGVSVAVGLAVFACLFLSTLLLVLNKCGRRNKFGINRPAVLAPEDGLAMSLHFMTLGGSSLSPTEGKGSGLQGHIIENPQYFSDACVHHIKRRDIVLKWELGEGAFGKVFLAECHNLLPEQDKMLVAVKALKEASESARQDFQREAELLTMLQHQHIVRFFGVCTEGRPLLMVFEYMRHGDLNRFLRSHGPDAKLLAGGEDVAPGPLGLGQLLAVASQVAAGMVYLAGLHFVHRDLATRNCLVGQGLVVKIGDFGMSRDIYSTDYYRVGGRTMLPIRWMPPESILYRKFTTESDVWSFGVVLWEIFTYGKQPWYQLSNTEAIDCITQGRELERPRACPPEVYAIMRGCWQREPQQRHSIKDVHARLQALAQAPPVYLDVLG
The next data set deals with C-Raf (Homo sapiens, UniProt P04049). Kind of data set: Kinase activity assay, C-Raf.
C-Raf, sequence (P04049 whole entry): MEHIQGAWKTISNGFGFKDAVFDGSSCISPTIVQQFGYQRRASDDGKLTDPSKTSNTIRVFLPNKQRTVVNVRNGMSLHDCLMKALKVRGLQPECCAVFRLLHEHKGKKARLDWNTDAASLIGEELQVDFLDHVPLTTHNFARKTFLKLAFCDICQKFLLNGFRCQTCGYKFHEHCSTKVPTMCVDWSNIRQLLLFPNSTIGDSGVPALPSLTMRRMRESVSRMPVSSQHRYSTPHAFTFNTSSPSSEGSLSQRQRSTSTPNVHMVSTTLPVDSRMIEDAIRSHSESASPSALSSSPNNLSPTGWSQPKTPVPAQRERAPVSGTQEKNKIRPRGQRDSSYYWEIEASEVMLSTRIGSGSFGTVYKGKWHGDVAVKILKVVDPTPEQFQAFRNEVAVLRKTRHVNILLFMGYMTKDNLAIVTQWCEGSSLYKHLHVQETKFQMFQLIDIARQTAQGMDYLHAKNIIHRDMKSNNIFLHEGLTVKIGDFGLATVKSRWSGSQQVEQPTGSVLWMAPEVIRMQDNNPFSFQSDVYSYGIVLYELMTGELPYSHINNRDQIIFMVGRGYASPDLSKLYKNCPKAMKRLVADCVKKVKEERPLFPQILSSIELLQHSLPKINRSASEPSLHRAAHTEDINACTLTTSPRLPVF
The next data set deals with Kdr (Homo sapiens, UniProt P35968). Put plainly: Kinase activity assay, Kdr.
The next data set deals with Flt1 (Homo sapiens, UniProt P17948). Put plainly: Kinase activity assay, Flt1.
For another data set, the target named is B-Raf (Homo sapiens, UniProt P15056). Put plainly: Kinase activity assay, B-Raf. The class given is biochemical. As to conditions: read-out: activity toward kinase B-Raf, IC50.
B-Raf, sequence (P15056 whole entry): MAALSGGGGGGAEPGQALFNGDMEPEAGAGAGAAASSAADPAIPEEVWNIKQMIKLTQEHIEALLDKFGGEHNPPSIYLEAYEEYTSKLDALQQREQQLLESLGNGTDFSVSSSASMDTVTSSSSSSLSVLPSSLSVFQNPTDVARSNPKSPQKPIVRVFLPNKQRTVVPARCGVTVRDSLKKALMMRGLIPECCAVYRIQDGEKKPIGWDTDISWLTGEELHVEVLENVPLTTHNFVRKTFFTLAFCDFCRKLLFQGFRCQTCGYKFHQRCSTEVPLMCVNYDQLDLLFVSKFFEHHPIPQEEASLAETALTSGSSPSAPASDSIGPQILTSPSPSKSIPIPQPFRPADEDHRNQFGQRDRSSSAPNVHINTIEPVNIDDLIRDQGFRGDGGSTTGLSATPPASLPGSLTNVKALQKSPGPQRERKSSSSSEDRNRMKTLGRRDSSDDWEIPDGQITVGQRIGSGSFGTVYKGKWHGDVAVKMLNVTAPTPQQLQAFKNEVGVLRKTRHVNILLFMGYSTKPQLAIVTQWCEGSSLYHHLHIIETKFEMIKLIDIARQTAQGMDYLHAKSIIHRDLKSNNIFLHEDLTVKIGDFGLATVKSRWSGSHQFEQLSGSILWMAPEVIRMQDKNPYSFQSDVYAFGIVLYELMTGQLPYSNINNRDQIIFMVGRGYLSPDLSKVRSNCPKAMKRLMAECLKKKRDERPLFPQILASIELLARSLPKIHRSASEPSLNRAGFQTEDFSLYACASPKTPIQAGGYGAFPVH
The target of another data set is Btk (Homo sapiens, UniProt Q06187). Put plainly: Kinase activity assay, Btk.
Btk, sequence (Q06187 whole entry): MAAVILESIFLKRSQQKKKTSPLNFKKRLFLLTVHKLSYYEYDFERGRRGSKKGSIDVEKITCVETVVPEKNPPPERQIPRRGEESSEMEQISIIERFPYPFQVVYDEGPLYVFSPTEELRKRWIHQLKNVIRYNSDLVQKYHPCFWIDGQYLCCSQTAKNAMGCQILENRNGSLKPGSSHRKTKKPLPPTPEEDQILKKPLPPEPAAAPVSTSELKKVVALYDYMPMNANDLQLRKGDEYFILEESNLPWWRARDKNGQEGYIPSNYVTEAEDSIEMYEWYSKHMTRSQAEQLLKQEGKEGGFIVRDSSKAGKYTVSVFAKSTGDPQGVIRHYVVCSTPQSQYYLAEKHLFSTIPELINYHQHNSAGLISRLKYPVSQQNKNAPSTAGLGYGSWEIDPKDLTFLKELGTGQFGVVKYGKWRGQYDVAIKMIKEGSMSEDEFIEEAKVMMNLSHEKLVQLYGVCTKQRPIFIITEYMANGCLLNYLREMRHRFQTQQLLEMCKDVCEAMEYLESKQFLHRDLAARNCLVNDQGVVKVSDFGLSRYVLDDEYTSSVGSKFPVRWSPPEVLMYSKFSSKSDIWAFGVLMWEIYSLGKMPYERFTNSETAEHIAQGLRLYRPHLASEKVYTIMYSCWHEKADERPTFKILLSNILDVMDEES
Another data set concerns the target Kit (Homo sapiens, UniProt P10721). Kind of data set: Kinase activity assay, Kit.
A further data set has as its target Src (Homo sapiens, UniProt P12931). Put plainly: Kinase activity assay, Src.
For the next data set, the target named is MAP4K4 (Homo sapiens, UniProt O95819). Kind of data set: Kinase activity assay, MAP4K4.
MAP4K4, sequence (O95819 whole entry): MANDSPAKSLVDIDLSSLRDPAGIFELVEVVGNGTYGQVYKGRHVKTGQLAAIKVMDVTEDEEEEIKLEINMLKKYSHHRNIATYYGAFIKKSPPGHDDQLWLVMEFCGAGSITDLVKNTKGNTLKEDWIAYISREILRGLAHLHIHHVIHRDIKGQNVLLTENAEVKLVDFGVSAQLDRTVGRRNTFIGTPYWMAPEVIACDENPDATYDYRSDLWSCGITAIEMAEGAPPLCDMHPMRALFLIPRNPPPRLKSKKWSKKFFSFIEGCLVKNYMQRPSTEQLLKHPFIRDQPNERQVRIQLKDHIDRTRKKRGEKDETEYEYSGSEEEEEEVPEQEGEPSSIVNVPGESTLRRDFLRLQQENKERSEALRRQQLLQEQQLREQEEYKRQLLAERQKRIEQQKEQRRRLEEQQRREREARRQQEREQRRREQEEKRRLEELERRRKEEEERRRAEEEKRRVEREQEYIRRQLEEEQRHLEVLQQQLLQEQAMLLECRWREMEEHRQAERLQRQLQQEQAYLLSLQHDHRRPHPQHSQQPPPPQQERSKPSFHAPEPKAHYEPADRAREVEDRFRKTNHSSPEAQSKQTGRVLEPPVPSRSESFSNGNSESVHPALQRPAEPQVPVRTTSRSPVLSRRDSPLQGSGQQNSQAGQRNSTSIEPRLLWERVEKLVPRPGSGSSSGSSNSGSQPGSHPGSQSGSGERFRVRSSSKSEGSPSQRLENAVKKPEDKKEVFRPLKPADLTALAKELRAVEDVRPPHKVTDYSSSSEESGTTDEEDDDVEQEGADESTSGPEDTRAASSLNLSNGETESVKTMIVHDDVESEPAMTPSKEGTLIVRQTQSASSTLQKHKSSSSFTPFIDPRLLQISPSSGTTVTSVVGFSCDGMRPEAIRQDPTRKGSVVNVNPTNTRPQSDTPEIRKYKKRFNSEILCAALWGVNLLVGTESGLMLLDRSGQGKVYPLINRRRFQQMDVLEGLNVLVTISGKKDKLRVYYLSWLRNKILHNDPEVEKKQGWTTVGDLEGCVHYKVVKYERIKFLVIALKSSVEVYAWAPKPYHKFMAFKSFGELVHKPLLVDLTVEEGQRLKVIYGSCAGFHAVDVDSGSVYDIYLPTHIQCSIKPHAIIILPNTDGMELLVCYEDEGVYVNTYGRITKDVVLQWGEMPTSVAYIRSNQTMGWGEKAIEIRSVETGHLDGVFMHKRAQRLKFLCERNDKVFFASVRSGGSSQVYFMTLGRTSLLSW
Another data set has as its target Fms (Homo sapiens, UniProt P07333). Kind of data set: Kinase activity assay, Fms.
The target in a further data set is B-Raf V600E (Homo sapiens, UniProt P15056, V600E). Kind of data set: Kinase activity assay, B-Raf V600E. The conditions noted are these: read-out: activity toward kinase B-Raf V600E, IC50. It is filed as biochemical.
B-Raf V600E, sequence (P15056 whole entry V600E): as the sequence (P15056 whole entry) above, with V600E counted along it
The target in the next data set is PI3Kα (Homo sapiens, UniProt P42336). Put plainly: Kinase activity assay, PI3Kα.
Another data set has as its target T2, A-Raf (Homo sapiens, UniProt P10398).
T2 sequence (P10398 1-606): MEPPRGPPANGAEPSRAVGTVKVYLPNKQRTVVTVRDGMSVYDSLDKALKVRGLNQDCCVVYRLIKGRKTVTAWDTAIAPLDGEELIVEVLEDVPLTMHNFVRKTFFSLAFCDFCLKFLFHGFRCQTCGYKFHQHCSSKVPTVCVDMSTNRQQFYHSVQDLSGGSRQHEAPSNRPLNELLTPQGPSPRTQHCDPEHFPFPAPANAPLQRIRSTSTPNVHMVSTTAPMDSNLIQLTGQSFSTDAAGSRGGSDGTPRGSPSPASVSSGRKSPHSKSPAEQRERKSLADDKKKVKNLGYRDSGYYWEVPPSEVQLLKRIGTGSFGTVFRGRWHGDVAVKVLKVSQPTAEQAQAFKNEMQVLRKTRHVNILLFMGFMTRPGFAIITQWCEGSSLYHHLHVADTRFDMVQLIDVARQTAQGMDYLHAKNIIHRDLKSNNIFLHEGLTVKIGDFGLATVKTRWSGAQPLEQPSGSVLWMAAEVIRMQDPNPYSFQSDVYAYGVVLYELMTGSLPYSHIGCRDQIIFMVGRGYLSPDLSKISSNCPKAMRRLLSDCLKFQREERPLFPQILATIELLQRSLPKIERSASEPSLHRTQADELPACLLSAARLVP
Put plainly: Kinase activity assay, A-Raf.

The mark [2] stands for this setting: dose 100, in PEG400:water by oral gavage 10 mL/kg.
Where [3] appears, read: dose 200, in PEG400:water by oral gavage 10 mL/kg.

Kit, sequence (P10721 26-976): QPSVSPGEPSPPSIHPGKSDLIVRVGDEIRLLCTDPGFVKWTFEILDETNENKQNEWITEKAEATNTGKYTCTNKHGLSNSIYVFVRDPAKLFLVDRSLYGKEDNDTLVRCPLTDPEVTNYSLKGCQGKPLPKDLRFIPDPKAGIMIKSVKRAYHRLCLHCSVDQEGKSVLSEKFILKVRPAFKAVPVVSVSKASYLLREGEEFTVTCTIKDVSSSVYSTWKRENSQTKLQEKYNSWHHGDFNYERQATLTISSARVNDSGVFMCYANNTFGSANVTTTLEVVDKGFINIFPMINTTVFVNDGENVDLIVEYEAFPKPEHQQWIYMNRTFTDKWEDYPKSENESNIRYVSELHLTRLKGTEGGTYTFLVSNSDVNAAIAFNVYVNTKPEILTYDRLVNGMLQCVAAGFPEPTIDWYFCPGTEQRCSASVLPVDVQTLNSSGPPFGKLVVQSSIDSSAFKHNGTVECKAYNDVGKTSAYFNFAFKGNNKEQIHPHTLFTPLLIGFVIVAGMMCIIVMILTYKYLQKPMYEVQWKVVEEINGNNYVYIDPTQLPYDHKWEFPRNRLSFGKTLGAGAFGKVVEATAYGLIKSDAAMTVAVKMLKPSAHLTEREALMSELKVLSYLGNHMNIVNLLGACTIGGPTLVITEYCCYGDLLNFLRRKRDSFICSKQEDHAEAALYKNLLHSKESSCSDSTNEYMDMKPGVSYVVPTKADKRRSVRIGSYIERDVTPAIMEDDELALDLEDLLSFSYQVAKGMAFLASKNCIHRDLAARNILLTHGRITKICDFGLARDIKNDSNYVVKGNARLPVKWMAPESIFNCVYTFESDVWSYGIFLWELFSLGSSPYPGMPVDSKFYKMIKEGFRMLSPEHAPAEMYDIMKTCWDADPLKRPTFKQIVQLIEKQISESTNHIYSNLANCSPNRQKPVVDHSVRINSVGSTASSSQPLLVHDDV

In the case of `CCCS(=O)(=O)Nc1ccc(F)c(C(=O)c2c[nH]c3ncc(-c4cnc(OC)nc4)cc23)c1F` [P-1496 arginine complex, propane-1-sulfonic acid {2,4-difluoro-3-[5-(2-methoxy-pyrimidin-5-yl)-1H-pyrrolo[2,3-b]pyridine-3-carbonyl]-phenyl}-amide], in data set [1] (setting [2]), the “AUC∞/dose” value is on record as 3,620 and the Cmax/dose is 159 (ng/mL)/(mg/kg). In addition, in [1], the “biopharmaceutical properties, comparison in words” value was “improved biopharmaceutical properties”.
In the case of `CCCS(=O)(=O)Nc1ccc(F)c(C(=O)c2c[nH]c3ncc(-c4cnc(OC)nc4)cc23)c1F` [P-1496 free base, Propane-1-sulfonic acid {2,4-difluoro-3-[5-(2-methoxy-pyrimidin-5-yl)-1H-pyrrolo[2,3-b]pyridine-3-carbonyl]-phenyl}-amide], in [1] (setting [2]), the “AUC∞/dose” value is given as 1,970 and the Cmax/dose is 106 (ng/mL)/(mg/kg).
For the compound `CCCS(=O)(=O)Nc1ccc(F)c(C(=O)c2c[nH]c3ncc(-c4cnc(OC)nc4)cc23)c1F` [P-1496 lysine complex, propane-1-sulfonic acid {2,4-difluoro-3-[5-(2-methoxy-pyrimidin-5-yl)-1H-pyrrolo[2,3-b]pyridine-3-carbonyl]-phenyl}-amide], the “AUC∞/dose” value is recorded as 3,210 in data set [1] (setting [2]) and 2,750 in data set [1] (setting [3]). The results for the Cmax/dose in data set [1] (setting [2]) and in data set [1] (setting [3]) were 283 (ng/mL)/(mg/kg) and 155 (ng/mL)/(mg/kg), respectively. In [1], the “biopharmaceutical properties, comparison in words” value was “improved biopharmaceutical properties”.
For `Cn1cc(-c2cnc3[nH]cc(C(=O)c4cc(NS(=O)(=O)c5cccc(F)c5)ccc4F)c3c2)cn1` [P-2105, 3-Fluoro-N-{4-fluoro-3-[5-(1-methyl-1H-pyrazol-4-yl)-1H-pyrrolo[2,3-b]pyridine-3-carbonyl]-phenyl}-benzenesulfonamide], the IC50 on TEC, at TrkA, at C-Raf, at Kdr, against Flt1 and at B-Raf was ≤ 10 µM throughout. In addition, the IC50 at Btk, against Kit, on Src, on MAP4K4, against Fms and at B-Raf V600E was ≤ 10 µM throughout.
For `CCCS(=O)(=O)Nc1ccc(F)c(C(=O)c2c[nH]c3ncc(-c4ccc(S(=O)(=O)NC5CC5)cc4)cc23)c1F` [P-2168, N-Cyclopropyl-4-{3-[2,6-difluoro-3-(propane-1-sulfonylamino)-benzoyl]-1H-pyrrolo[2,3-b]pyridin-5-yl}-benzenesulfonamide], the IC50 on TrkA, against C-Raf, on Kdr, at B-Raf, against Btk and on Kit was ≤ 10 µM each time. For the same compound, the half-maximal inhibitory concentration (IC50) against Src, on Fms and on B-Raf V600E was ≤ 10 µM throughout.
As to `CCCS(=O)(=O)Nc1ccc(F)c(C(=O)c2c[nH]c3ncc(-c4cn[nH]c4)cc23)c1F` [P-2174, Propane-1-sulfonic acid {2,4-difluoro-3-[5-(1H-pyrazol-4-yl)-1H-pyrrolo[2,3-b]pyridine-3-carbonyl]-phenyl}-amide], the half-maximal inhibitory concentration (IC50) against TEC, on PI3Kα, at TrkA, against Kdr, on B-Raf and against Btk was ≤ 10 µM in each case. The IC50 at Kit, against Src, against Fms and on B-Raf V600E was ≤ 10 µM each time.
As to `CCCS(=O)(=O)Nc1ccc(F)c(C(=O)c2c[nH]c3ncc(-c4ccn[nH]4)cc23)c1F` [P-2176], the concentration for half-maximal inhibition (IC50) against TrkA, on Kdr, on B-Raf, against Btk, on Kit and against Src was ≤ 10 µM throughout. For the same compound, the half-maximal inhibitory concentration (IC50) against MAP4K4, against Fms and at B-Raf V600E was ≤ 10 µM in each case.
Regarding `CCCS(=O)(=O)Nc1ccc(F)c(C(=O)c2c[nH]c3ncc(C#CCOC)cc23)c1F` [P-2239, Propane-1-sulfonic acid {2,4-difluoro-3-[5-(3-methoxy-prop-1-ynyl)-1H-pyrrolo[2,3-b]pyridine-3-carbonyl]-phenyl}-amide], the IC50 at TrkA, at A-Raf, on C-Raf, on Kdr, at B-Raf and against Kit was ≤ 10 µM in each case. The IC50 at Src, on MAP4K4, against Fms and on B-Raf V600E was ≤ 10 µM throughout.
`CCCCS(=O)(=O)Nc1ccc(F)c(C(=O)c2c[nH]c3ncc(-c4cnn(C)c4)cc23)c1F` [P-2302, Butane-1-sulfonic acid {2,4-difluoro-3-[5-(1-methyl-1H-pyrazol-4-yl)-1H-pyrrolo[2,3-b]pyridine-3-carbonyl]-phenyl}-amide]: the half-maximal inhibitory concentration (IC50) at TEC, against TrkA, against Kdr, against Flt1, at B-Raf and on Btk was ≤ 10 µM in each case. The half-maximal inhibitory concentration (IC50) against Kit, on Src, against Fms and at B-Raf V600E was ≤ 10 µM each time.
Consider `Cn1cc(-c2cnc3[nH]cc(C(=O)c4c(F)ccc(NS(=O)(=O)C(F)(F)F)c4F)c3c2)cn1` [P-2345, N-{2,4-Difluoro-3-[5-(1-methyl-1H-pyrazol-4-yl)-1H-pyrrolo[2,3-b]pyridine-3-carbonyl]-phenyl}-C,C,C-trifluoro-methanesulfonamide], for which the IC50 against TrkA, against Kdr, at B-Raf, at Btk, against Kit and against Src was ≤ 10 µM throughout. Further, the IC50 at B-Raf V600E is ≤ 10 µM.
